Measured values from patent US20220194952A1, “TETRAPYRROLIC CONJUGATES AND USES THEREOF FOR IMAGING” (Health Research, Inc., priority 2019, published 2022).

Legend:
[1] = Absorbance (UV-VIS) in methanol; assay type: physicochemical; conditions: ε665 for 2 (peak 660 nm), ε785 for 4 (peak 785 nm)
Description: Absorbance of 2 and 4 was measured using different concentrations in methanol on UV-VIS and indicates far-red peaks at 660 nm and 785 nm, with extinction coefficients ε665=47,500 L·mol^−1 cm^−1 and ε785=18,100 L·mol^−1 cm^−1 respectively.
Chemistry Methods: All reactions were carried out in heat gun-dried glassware under an atmosphere of nitrogen and magnetic stirring. Thin layer chromatography (TLC) was done on pre-coated silica gel sheets (layer thickness 0.2 mm). Column chromatography was performed either using silica gel 60 (70-230 mesh) or neutral alumina grade III. In some cases preparative TLC was used for the purification of compounds. Purity of the compounds was ascertained by TLC and HPLC analysis. All compounds including the intermediates were >95% pure. UV-visible spectra were recorded on FT UV-visible spectrophotometer using methanol as a solvent. Mass spectrometry analyses were performed at the Mass Spectrometry Facility, University at Buffalo, N.Y. Compounds 1 and 2 were synthesized by following the methodologies previously described.

[2] = Fluorescence quantum yield and lifetime in benzonitrile (PhCN); assay type: physicochemical
Description: (B) Fluorescence decay curve of 4 observed at 787 nm. Excitation wavelength: 651 nm.
Instrumentation: Measurement of fluorescence quantum yields were carried out on a Hamamatsu C9920-0X(PMA-12) U6039-05 fluorescence spectrofluorometer. Femtosecond laser flash photolysis was conducted using a Clark-MXR 2010 laser system and an optical detection system provided by Ultrafast Systems (Helios). The source for the pump and probe pulses were derived from the fundamental output of Clark laser system (775 nm, 1 mJ pulse-1 and fwhm=150 fs) at a repetition rate of 1 kHz. A second harmonic generator introduced in the path of the laser beam provided […] laser pulses for excitation. A 95% of the fundamental output of the laser was used to generate the second harmonic, while 5% of the deflected output was used for white light generation. Prior to generating the probe continuum, the laser pulse was fed to a delay line that provided an experimental time window of 1.6 ns with a maximum step resolution of 7 fs. The pump beam was attenuated at 5 μJ pulse-1 with a spot size of 2 mm diameter at the sample cell where it was merged with the white probe pulse in a close angle (<10°). […] The photodynamics were monitored by continuous exposure to a xenon lamp for visible region and halogen lamp for near-IR region as a probe light and a photomultiplier tube (Hamamatsu 2949) as a detector.

[3] = Singlet oxygen NIR emission in O2-saturated C6D6 versus C60 standard; assay type: physicochemical; conditions: O2-saturated C6D6, excitation 532 nm, emission at 1270 nm compared with C60
Text: Excitation wavelength: 532 nm.
After monitoring absorption characteristics in several organic and aqueous solvents, it was hypothesized that the aggregation state of 4 could have contributed in decreasing the fluorescence and singlet oxygen quantum yields. The quantum yield of singlet oxygen from 4 was ΦO2=0.31 determined by the comparison of the emission intensity at 1270 nm as compared with C60 used as a standard (ΦO2=0.96) (FIG. 5).

[4] = system: Colon26 cells; assay: In vitro cytotoxicity (PDT) MTT assay; assay type: cell-based; conditions: variable drug concentrations, fixed light dose 1.0 J/cm^2 (FIG. 8A)
Description: Drug concentrations were increased 10× (0.25 to 32.0 μM) and a significant cytotoxicity was observed only at high concentrations at the highest light dose.
Assessment of cell growth following treatment with compound solutions alone and after light exposure was determined by a colorimetric assay that measured the reduction of yellow 3-(4,5-dimethythiazol-2-yl)-2,5-diphenyl tetrazolium bromide (MTT) by mitochondrial succinate dehydrogenase.
Briefly cells were plated into 96 well plates, allowed to adhere to the plate and are treated with a range of compound concentrations for various lengths of time. The light source consisted of dye lasers (375; Spectra-Physics, Mt. View, Calif.) pumped by an argon-ion laser (either 171 or 2080; Spectra-Physics). The dye lasers were tuned to the appropriate wavelength for the compound being tested. Total light doses were ranged from 0.125 to 1.0 J/cm^2 at a fluence rate of 3.2 mW/cm^2. At 48 hours post PDT treatment, MTT was added. The solubilized formazan product was measured spectro-photometrically using a BIOTEK EL-800 plate reader. Data were processed using GEN5 software. A medium blank value was subtracted from all samples and Optical Density (O.D.) values of treated cells were divided by mean O.D. value of untreated cells for each light dose).
Colon26 cells were plated and allowed to adhere for 4 hours, then the photosensitizer was added and incubated at 37° C. for 24 hours. Plates were irradiated with 789 nm light from a dye laser at 3.2 mW/cm^2 for a total dose of 0.25 to 1.0 Joule/cm^2.

[5] = system: Colon26 tumors; assay: In vivo PDT efficacy; parameters: species or system BALB/c mice
Description: Tumors were exposed to light (135 J/cm^2, 75 mW/cm^2) at 24 h (hour) postinjection (optimal time for tumor uptake for both the PSs).
For determining the in vivo imaging and therapeutic potential of 2, BALB/c mice (5-10 mice/group) bearing Colon26 tumors were used. In brief, 1×10^6 Colon26 cells were injected in mice subcutaneously. The tumors were left to grow for 1 week until they achieve the desired size (3-5 mm) for treatment. The photosensitizer was injected intravenously following the animal protocol approved by RPCI IACUC committee. Irradiance occurred 24 hours after i. v. injection; light dose was 135 J/cm^2 at a dose rate of 75 mW/cm^2 using the near-IR wavelengths of interest: 665 nm or 789 nm.
Two axes of the tumor (L, longest axis; W, shortest axis) were measured in millimeters with the aid of a Vernier caliper. Tumor weight (mg) was estimated as a formula: tumor weight=1/2 (L×W2). Tumor measurements were taken daily for the first 10 days and at least three tine a week for the first 4 weeks of post therapy and twice a week thereafter. Endpoints were 400 mm^3 tumor volume or 60 days.

- extinction coefficient at far-red absorbance peak [1]: 18,100 L·mol^−1 cm^−1
- fluorescence lifetime ([2]; PhCN, decay observed at 787 nm, excitation 651 nm): 0.81 ns
- Fluorescence quantum yield Φ ([2]; benzonitrile (PhCN), excited at 532 nm): 0.013
- quantum yield of singlet oxygen ΦO2 [3]: 0.31
Substance: methyl 3-[1′-(m-iodobenzyloxy)ethyl]-3-devinyl-13^3-keto-13^2-methoxycyclohexene [Compound 4]
- in vitro cytotoxicity (in words) [4]: did not produce any significant cell kill
- PDT efficacy compared with 2 (in words) ([5]; BALB/c mice bearing Colon26 tumors): far lower than that of 2
- tumor cure after PDT ([5]; dose 1 μmol/kg, light 135 J/cm^2, 75 mW/cm^2 at 24 h postinjection, 5 mice/group): no tumor cure
- long-term PDT efficacy at higher drug doses (in words) ([5]; higher drug doses than 1 μmol/kg, light 135 J/cm^2, 75 mW/cm^2 at 24 h): no significant long-term PDT efficacy
